According to publication PMC10396955, “2-Oxabicyclo[2.1.1]hexanes as saturated bioisosteres of the ortho-substituted phenyl ring” (Nature Chemistry, 2023):

How the values were obtained:
[1] = Chemical stability of carboxylic acids (acid, base, storage); type: physicochemical; conditions: room temperature, one day
Excerpt: We also checked the chemical stability of three representative carboxylic acids, 1b, 19b and 22b (Table 2), because we suspected that some of them could decompose via a retro-Michael-type reaction. […] All products were crystalline solids, and we stored all of them in closed vials at room temperature on the shelf.

SMILES | melting point [°C] | chemical stability ([1]; aqueous 1 M hydrochloric acid) | chemical stability ([1]; aqueous 1 M sodium hydroxide)
O=C(O)C1C2CC1(c1ccc(C(F)(F)F)cc1)CO2 (stereo not drawn) [Compound 19b] | 64 to 65 | did not lead to any decomposition | did not lead to any decomposition
Cc1cncc(C23COC(C2)C3C(=O)O)c1 (stereo not drawn) [Compound 22b] | 204 to 205 | did not lead to any decomposition | did not lead to any decomposition
